In patent publication US10576145B2, “CD200 inhibitors and methods of use thereof” (REGENTS OF THE UNIVERSITY OF MINNESOTA, priority 2014, dated 2020):
“Also recorded” adds a separate entry of the source.

Assays:
GL261 tumor bearing mice = assay: GL261 glioma model: tumor lysate vaccine +/- antagonist, tumor growth by imaging and survival; type: in vivo, C57BL/6 mice; settings: for Tumor growth: tumor lysate vaccine + antagonist vs tumor lysate alone or saline, weekly imaging; for Survival: GL261 glioma model, tumor lysate vaccine + antagonist
Description: FIGS. 4A-4C. FIG. 4A) GL261 tumor bearing mice were inoculated with 50 μg of antagonist 6059 one day prior to vaccination with tumor lysate (65 μg)+/−the antagonist 6059 (50 μg). FIG. 4B) Mice were imaged weekly for tumor growth. The following groups were studied: saline (1), tumor lysate (2), and tumor lysate+6059 (3). FIG. 4C) Percent survival post inoculation for saline (1), tumor lysate (2), and tumor lysate+6059 (3) groups.
FIGS. 5A-5B. FIG. 5A) GL261 tumor bearing mice were inoculated with 10 μg of 6059 on day 2 into the tumor site then with 50 μg of antagonist 6059 one day prior to vaccination with tumor lysate (65 μg)+the antagonist 6059 (50 μg). FIG. 5B) Mice were imaged weekly for tumor growth. The following groups were studied: saline (1), tumor lysate+6059 (2), and CNS+tumor lysate+6059 (3) groups.
Whether vaccination with CD200R antagonists could enhance the survival of tumor-bearing mice was also studied. […] GL261 tumor bearing mice were vaccinated weekly with saline, tumor lysates (TL) or tumor lysates+an antagonist (4004, 4013, 6059).
Tumor-bearing mice were inoculated in the brain with 10 μg of the inhibitor 6059 at the same coordinates at which the tumor was injected two days previously. This was followed by weekly injections of tumor lysate+inhibitor (FIGS. 5A-5B).
Tumors were implanted into female C57BL/6 mice (6-8 wk old) (Jackson Laboratory) and maintained in a pathogen-free facility according to the guidelines of the University of Minnesota Animal Care and Use Committee. The GL261 orthotopic transplant model was established in C57BL/6 (B6) mice by inoculation with 15,000 GL261-Luc^+ cells in 1 μl of saline. Tumors were implanted stereotactically into the right striatum; coordinates were 2.5 mm lateral, 0.5 mm anterior of bregma, and 3 mm deep from the cortical surface of the brain^19. Tumor burden was determined by bioluminescent imaging. Light emitted from the tumors was quantified using Living Image software (Xenogen) and expressed as photons per second per centimeter squared per steradian (p/s/cm^2/sr). GL261 cells for tumor lysate vaccines were cultured in neural stem cell media consisting of DMEM/F12 (1:1) with L-glutamine, sodium bicarbonate, penicillin/streptomycin (100 U/ml), B27 and N2 supplements (Life Technologies), and 0.1 mg/ml Normocin (Invivogen). Cultures were maintained at 5% 02 and supplemented with 20 ng/ml EGF and FGF semiweekly (R&D Systems, Minneapolis, Minn.). […] Mice were euthanized when tumors reached 1000 mm^3. […] Tumor cells used to establish both models were cultured in DMEM containing 10% FBS, penicillin/streptomycin (100 U/ml), and 0.1 mg/ml Normocin (Invivogen) in atmospheric oxygen.
Tumor lysates were prepared by dissociating tumor cells with non-enzymatic dissociation solution (Sigma). Cells were then washed 3 times with PBS, re-suspended in 500 μL PBS, and frozen overnight at −80° C. Cells were then lysed by five freeze/thaw cycles of freezing in liquid nitrogen and thawing in a 55° C. water bath. Cell debris was pelleted by centrifugation at 14,000 RCF, and the protein concentration of the supernatant was determined using a Bradford assay. Lysates were stored at −80° C. until use. Each vaccine was prepared on the day of vaccination and consisted of 65 μg of protein tumor lysate and 10 μg Poly:ICLC (Oncovir, Inc.), with or without 50 μg of the 6059 peptide antagonist, in a final volume of 100 μL injected intradermally in the back of the neck. For survival studies, vaccines were administered weekly starting three days post-tumor implantation for a total of 6 doses. In T cell priming experiments, CD8 T-cell priming experiments, animals were vaccinated intradermally on four consecutive days with 100 μg Ovalbumin (OVA) and 10 μg Poly:ICLC, and once more on day eleven^19.

[1] = system: naïve splenocytes pulsed with purified CD200 protein; assay: Naive splenocytes pulsed with purified CD200 +/- CD200R antagonist: MDSC expansion and arginase-I; type: cell-based
Description: FIGS. 17A-17B. CD200R antagonist blocks MDSC expansion and tumor suppressive effects. (FIG. 17A) Murine glioma GL261 was incubated with naïve splenocytes in a trans-well plate+/−CD200R antagonist and analyzed for MDSC expansion and cytokine production. (FIG. 17B) Naïve splenocytes were pulsed with purified CD200+/−CD200R antagonist and analyzed for MDSC expansion and arginase-I production. Error bars are ±SEM, statistical significance was determined by one-way ANOVA, post hoc analysis by Dunn's multiple comparison test, *p<0.05, ** p<0.001.
Spleens were harvested homogenized in RPMI media containing 10% FBS, penicillin/streptomycin (100 U/ml), and 0.1 mg/ml Normocin (Invivogen). Cells were then filtered using a 70-micron filter, centrifuged, and resuspended in 5 ml of Ammonium-Chloride-Potassium buffer and incubated for 5 minutes at room temperature to lyse RBCs. […] Following 24 h incubation, CD200R antagonist peptide 6059 was added to the appropriate wells, incubated for 20 min prior to adding 5 μg of purified CD200 protein (Sino Biological) and incubated for a further 72 hrs, harvested and analyzed for anti-CD11b and […] population using an LSR II flow cytometer. […] Following incubation, 50 μl culture supernatant was analyzed for IFN-γ using a flow cytometric bead array according to the manufacturer's protocol (BD Biosciences). […]

CD200R = target: T1, CD200R (Mus musculus, UniProt Q9ES57); settings: reportedly; cited from earlier work
T1 sequence (Q9ES57 26-326): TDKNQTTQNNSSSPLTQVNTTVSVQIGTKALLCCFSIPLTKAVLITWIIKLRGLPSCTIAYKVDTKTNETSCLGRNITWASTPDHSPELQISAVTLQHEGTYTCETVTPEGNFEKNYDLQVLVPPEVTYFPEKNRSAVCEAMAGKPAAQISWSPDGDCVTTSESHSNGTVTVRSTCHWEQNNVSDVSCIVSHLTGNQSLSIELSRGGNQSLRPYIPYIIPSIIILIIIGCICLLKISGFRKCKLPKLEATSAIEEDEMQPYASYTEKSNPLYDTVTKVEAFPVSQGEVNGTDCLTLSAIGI

Sequence: NTIGDGGCY [Antagonist 6059]
- Tumor growth after inoculation of the inhibitor into the CNS tumor site (GL261 tumor bearing mice; GL261, 10 μg in the brain on day 2, then tumor lysate + inhibitor): Tumor growth was delayed; also recorded: further suppressed tumor growth
- Survival enhancement / survival benefit (GL261 tumor bearing mice; GL261, tumor lysate + antagonist): 30%
- Tumor growth (GL261 tumor bearing mice; GL261): tumors grow faster in mice vaccinated with saline or tumor lysate alone compared to mice vaccinated with tumor lysate plus an antagonist; also recorded: slowed tumor growth
- Tumor growth (GL261 tumor bearing mice; GL261, listed as CD200R antagonist): statistically significant inhibition of tumor growth
- Survival (GL261 tumor bearing mice): increased survival benefit; also recorded: enhancing survival
- Survival (GL261 tumor bearing mice; listed as CD200R antagonist): enhanced survival benefit
- CD200 induced arginase-I secretion [1]: blocked CD200 induced arginase-I secretion
- CD200 induced MDSC expansion ([1]; pre-incubation with antagonist): significantly blocked CD200 induced MDSC expansion
- Competition with CD200 for binding to CD200R (CD200R): outcompetes the intact CD200 protein for binding to the CD200R
